The results in this text go back to patent publication US11919972B2, “Peptide libraries with non-canonical amino acids” (REGENERON PHARMACEUTICALS, INC., priority 2018, dated 2024).

Square brackets hold non-standard residues; d marks the D form. Ends that are not written are not given here. Ala(cPr) = N[C@@H](CC1CC1)C(=O)O

Assay [1] relates to CD8+ SupT1 cells. Description: Screen of focused OBOC peptide library against CD8+ cells. It counts as cell-based. The following applies: 10% FBS. The method, then:
In addition to screening the focused library against recombinant human CD8 protein, the library was screened against cells. Non-specific PCCs were identified and removed by an anti-screen against CD8− Jurkat cells. The pre-cleared library entered into a screen against CD8+ SupT1 cells in 2% FBS for 1 h at 4° C. […] Non-canonical amino acids including cyclopropyl alanine, thiazolyl alanine, 4-fluorophenylalanine, and 1-methyltryptophan were identified among the hits. The consensus sequence from the hits in Table 6 is trrkr (SEQ ID NO:30).
Because of the large number of electrostatic hits in the screen with 2% FBS, additional screens were performed varying the blocking conditions to decrease the quantity of electrostatic hits. In particular, screens using 10% FBS gave no hits with any electrostatic amino acids. These conditions ultimately identified tnpks (SEQ ID NO:31) and tp(CyA)k(Fp).

The subject of assay [2] is CD8+ SupT1 cells. Description: Flow cytometry binding to CD8+ SupT1 and CD8− Jurkat cells. It counts as cell-based. The following applies: FIG. 1. From the text:
FIG. 1 is a graph binding of some example peptides to CD8+ cells (SuppT1 cells) and CD8− cells (Jurkat cells).
The hits identified in the non-canonical screen were further evaluated in CD8+ SupT1 and CD8− Jurkat cells by flow cytometry.

In the case of “tp(CyA)k(FP): hit sequence following CD8+ cell screen; also identified in 10% FBS screen ([dT][dP][Ala(cPr)][dK]X; not fully specified (residue 5); printed as tp(CyA)k(FP))”, the “hit in CD8+ cell screen with varied blocking conditions” value in the assay with CD8+ SupT1 cells [1] was “identified”. Besides, the “binding to CD8 compared with parent compound tfpkk” value in the assay on CD8+ SupT1 cells [2] was “improved binding to CD8 over the parent compound”.
For the substance “tnpks: hit identified in CD8+ cell screen using 10% FBS (TNPKS; (1)..(5) D amino acids)”, the “hit in CD8+ cell screen with varied blocking conditions” value in the assay on CD8+ SupT1 cells [1] is listed as “identified”.
